Measurements: article PMC11348465, “Pharmacochemical Study of Multitarget Amino Acids’ Hybrids: Design, Synthesis, In vitro, and In silico Studies” (Medicinal Chemistry (Shariqah (United Arab Emirates), 2024)
Like-named read-outs stand apart in the source and are kept apart here.

Key:
[1] = Inhibition of linoleic acid peroxidation (AAPH-induced)
Method: Our group evaluated the in vitro study as reported previously. Ten 16 mM sodium linoleate solution microliters were added to the UV cuvette containing 93 µL of a 0.05 M phosphate buffer, pH 7.4, and 10 µL of the tested compounds (final concentration 100 µM). The oxidation reaction started at 37 °C under air by adding 50 µL of the free radical initiator AAPH (40 mM). Oxidation was carried out and monitored at 234 nm. DMSO under the same conditions was used as a negative control. Trolox was used as the appropriate standard (positive control). The results are given in Table S1 in the supplementary material.
We used the water-soluble 2, 2’-azobis(2-amidinopropane) hydrochloride (AAPH) to generate in vitro peroxyl radicals through spontaneous thermal decomposition, which resembles cellular lipid peroxidation due to the activity of the undertaken radicals. The anti-lipid peroxidation activities were compared to a well-known antioxidant, i.e., Trolox (Table S1 in the supplementary material). […] In general, the anti-lipid peroxidation ranged from 8-99%. Except for acids 11, 12, 17, 19, 21, 22, 24, 25, and 28, which present high antioxidant activities (on the high % level), the other cinnamic acids present low or medium activity.

[2] = target: T1, soybean lipoxygenase (LOX-1) (Glycine max, UniProt P08170); test: Soybean lipoxygenase inhibition study; assay type: biochemical; details: for LOX inhibition (%): % inhibition at 100 µM; for inhibition at 100 µM: read-out: LOX inhibition (%)
T1 construct: purchased Sigma Chemical, Co. (St Louis, MO, USA)
T1 sequence (P08170 1-839): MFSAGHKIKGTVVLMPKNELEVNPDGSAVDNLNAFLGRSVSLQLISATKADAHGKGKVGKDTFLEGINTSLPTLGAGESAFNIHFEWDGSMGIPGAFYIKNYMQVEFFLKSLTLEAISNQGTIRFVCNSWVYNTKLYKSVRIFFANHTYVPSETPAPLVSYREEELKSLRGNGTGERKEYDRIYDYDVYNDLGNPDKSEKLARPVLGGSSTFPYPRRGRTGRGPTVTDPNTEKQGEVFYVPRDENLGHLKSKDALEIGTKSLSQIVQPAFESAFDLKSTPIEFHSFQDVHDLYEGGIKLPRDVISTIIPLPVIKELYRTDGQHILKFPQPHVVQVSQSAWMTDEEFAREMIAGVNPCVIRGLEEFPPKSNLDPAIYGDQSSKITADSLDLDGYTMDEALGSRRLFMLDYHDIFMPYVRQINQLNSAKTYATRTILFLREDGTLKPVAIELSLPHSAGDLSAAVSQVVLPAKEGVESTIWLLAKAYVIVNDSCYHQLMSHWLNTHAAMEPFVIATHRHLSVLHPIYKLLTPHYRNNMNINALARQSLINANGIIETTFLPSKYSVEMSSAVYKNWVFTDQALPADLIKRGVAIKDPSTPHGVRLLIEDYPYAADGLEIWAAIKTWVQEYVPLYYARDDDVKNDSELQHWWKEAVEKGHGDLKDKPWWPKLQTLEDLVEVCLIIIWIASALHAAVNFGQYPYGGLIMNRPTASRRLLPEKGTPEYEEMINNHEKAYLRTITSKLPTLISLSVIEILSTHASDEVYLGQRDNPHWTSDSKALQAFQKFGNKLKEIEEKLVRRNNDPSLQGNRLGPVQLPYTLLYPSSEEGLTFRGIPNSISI
Method: Our group evaluated an in vitro study as reported previously. The tested hybrids were incubated at room temperature with sodium linoleate (100 µM) and 200 µL of enzyme solution (1/9 X 10^-4 w/v in saline). […] Different concentrations were used for the determination of IC50. A blank determination was used as a negative control.
Due to the limited work on sufficiently purified human ALOX-5 isoenzyme, most of the published research was performed on the soybean homolog. […] This study used the soybean isoenzyme LOX-1, which exerts maximal activity at pH 9.0 [72].

ovine COX-2 = target: T2, ovine COX-2 (Ovis aries, UniProt P79208); test: Cyclooxygenase-2 inhibition study; assay type: biochemical; details: for COX-2 inhibition (%): % inhibition at 100 µM
T2 construct: purchased Cayman (USA)
T2 sequence (P79208 17-603): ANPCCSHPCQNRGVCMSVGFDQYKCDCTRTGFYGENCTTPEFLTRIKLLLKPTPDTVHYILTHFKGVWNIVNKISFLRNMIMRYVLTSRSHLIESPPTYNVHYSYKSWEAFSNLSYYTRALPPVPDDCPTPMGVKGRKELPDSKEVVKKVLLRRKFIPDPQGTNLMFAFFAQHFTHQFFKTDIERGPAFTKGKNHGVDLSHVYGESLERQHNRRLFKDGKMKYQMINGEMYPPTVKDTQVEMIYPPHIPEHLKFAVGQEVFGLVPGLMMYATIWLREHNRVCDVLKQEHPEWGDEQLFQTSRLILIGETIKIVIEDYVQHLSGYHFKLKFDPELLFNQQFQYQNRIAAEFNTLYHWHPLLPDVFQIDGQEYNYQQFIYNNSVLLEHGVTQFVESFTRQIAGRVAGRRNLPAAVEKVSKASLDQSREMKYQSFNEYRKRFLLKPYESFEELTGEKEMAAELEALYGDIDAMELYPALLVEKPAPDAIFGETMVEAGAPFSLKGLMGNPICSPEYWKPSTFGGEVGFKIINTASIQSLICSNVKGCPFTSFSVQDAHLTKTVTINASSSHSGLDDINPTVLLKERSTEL
Method: The in vitro study of cyclooxygenase (COX) activity was determined by using arachidonic acid (AA) as the substrate and N,N,N’,N’-tetramethylphenylenediamine (TMPD) as the co-substrate. […] The absorption due to the spontaneous oxidation of TMPD was subtracted from the initial rate of oxidation observed in the presence of AA. […] A blank determination was used first to serve as a negative control. Indomethacin was used as a reference COX-2 inhibitor (positive control).
The role of COX-2 in neurodegenerative diseases has been reported, and COX-2 inhibition is considered of high importance as a therapeutic tool. The designed derivatives were tested for their COX-2 inhibition activity on the ovine COX-2 enzyme. […] Indomethacin was used as a reference compound.

[3] = cited from earlier work
albumin = test: Albumin denaturation studies
Method: The synthesized compounds were evaluated for the inhibition of albumin denaturation. Test tubes containing 1 mL of albumin solution (1% w/v in phosphate buffer pH=7.4), buffer, and 20 μL of the tested compounds dissolved in DMSO are incubated at 37°C for 15 minutes (final concentration 100 µM). The incubation follows at 60°C for another 15 minutes to induce albumin denaturation. The samples are cooled to room temperature. Their absorbance was measured at 660 nm. DMSO was used as a blank solution and acetylsalicylic acid as a reference compound. The results are given in Table S1 in the supplementary material.
Protein denaturation has correlated well with the inflammatory response, leading to various inflammatory diseases. It is known that tissue injury during life might refer to the denaturation of cells' protein constituents or intercellular substances. […] Many anti-inflammatory drugs can inhibit the heat-coagulation of serum albumin [78]. Thus, the inhibition of albumin heat-coagulation activity of the designed molecules was examined in vitro [60] as a measure of their anti-inflammatory activity. The experimental results were compared to the standard drug, acetylsalicylic acid. […] The results are given in Table S1 in the supplementary material.

[4] = read-out: LOX inhibition (IC50)
[5] = read-out: COX-2 inhibition (IC50)

Compound	AAPH inhibition (%, at 100 µM) [1]	IC50 [2, 4]	other results
CCOC(=O)CNC(=O)/C=C/c1ccc(O)c(OC)c1 [Compound 24a]	82%	100 µM	–
COC(=O)CCCNC(=O)/C=C/c1ccc(O)c(OC)c1 [Compound 24b]	34%	100 µM	–
COC(=O)CC[C@H](NC(=O)/C=C/c1ccc(O)c(OC)c1)C(=O)OC [Compound 24c]	12%	75 µM	COX-2 inhibition (%) (ovine COX-2): 9%
O=C(O)/C=C/c1ccc(O)cc1 [Compound 25, p-coumaric acid]	76%	–	IC50 [2]: 10 µM; IC50 (ovine COX-2; [5]): 62 µM
COC(=O)CCCNC(=O)/C=C/c1ccc(O)cc1 [Compound 25b]	66%	–	LOX inhibition (%) [2]: 10%
COC(=O)CC[C@H](NC(=O)/C=C/c1ccc(O)cc1)C(=O)OC [Compound 25c]	78%	63 µM	–
N#Cc1ccc(/C=C/C(=O)O)cc1 [Compound 26]	–	–	inhibition at 100 µM [2]: 27%; IC50 (ovine COX-2): 65 µM; AAPH inhibition (%, at 100 µM) [3]: 20%
COC(=O)CC[C@H](NC(=O)/C=C/c1ccc(F)cc1)C(=O)OC [Compound 27c]	10%	–	LOX inhibition (%) [2]: 8%; IC50 (ovine COX-2; [5]): 72.5 µM
CCOC(=O)CNC(=O)/C=C/c1ccc(O)c(O)c1 [Compound 28a]	47%	70 µM	inhibition at 100 µM (ovine COX-2): 17%
COC(=O)CCCNC(=O)/C=C/c1ccc(O)c(O)c1 [Compound 28b]	58%	–	IC50 (ovine COX-2; [5]): 100 µM; Albumin denaturation (%, at 100 µM) (albumin): 44%
COC(=O)CCC(NC(=O)C=Cc1ccc(O)c(O)c1)C(=O)OC (stereo not drawn) [Compound 28c]	87%	8.5 µM	inhibition at 100 µM (ovine COX-2): 19%; Albumin denaturation (%, at 100 µM) (albumin): 31%
CC1(C)Oc2ccc(/C=C/C(=O)O)cc2O1 [Compound 29, (E)-3-(2,2-dimethylbenzo[d][1, 3]dioxol-5-yl)acrylic acid]	56%	–	inhibition at 100 µM [2]: 46%
CCOC(=O)CNC(=O)/C=C/c1ccc2c(c1)OC(C)(C)O2 [Compound 29a]	80%	–	COX-2 inhibition (%) (ovine COX-2): 38%; Albumin denaturation (%, at 100 µM) (albumin): 25%
COC(=O)CC[C@H](NC(=O)/C=C/c1ccc2c(c1)OC(C)(C)O2)C(=O)OC [Compound 29c]	27%	–	Albumin denaturation (%, at 100 µM) (albumin): 75%
CC(=O)Oc1ccc(/C=C/C(=O)O)cc1 [Compound 30, (E)-3-(4-acetoxyphenyl) acrylic acid]	33%	–	inhibition at 100 µM [2]: 23%
COC(=O)CC[C@H](NC(=O)/C=C/c1ccc(OC(C)=O)cc1)C(=O)OC [Compound 30c]	16%	100 µM	COX-2 inhibition (%) (ovine COX-2): 6%
